Legend:
Assay type in all cases: cell-based
MycC protein (c-myc) = target: T1, MycC protein (c-myc) (Homo sapiens, UniProt P01106); assay: Degradation of MycC protein, 24 h treatment, JESS Western, L363 cells (Example 161); conditions: L-363 cells
T1 construct: either 2×10^6 of L-363 (human leukemia cell line) cells; endogenous in cells; host or cells: L-363 / L363 human leukemia cells
Experimental: (§1) For L363 cells (suspension), 1E6 cells were plated into each well of a 6 well plate. For SK-N-BE(2) cells (adherent), 5E5 cells were plated into each well of a 6 well dish. […] All compounds were diluted to 10 mM in DMSO. Cells were treated with the compound for 24 hrs, then for both cell types, media containing cells were removed from wells into a 15 ml centrifuge tube, and remaining adherent SK-N-BE(2) cells were also scraped from the wells into the appropriate tubes. Tubes were centrifuged, cells were washed with PBS then re-centrifuged to pellet cells. A RIPA buffer cocktail was added to the cells on ice for 5 mins. Cell lysates were clarified by centrifugation and stored at −80 degrees until required. BCA assay was performed on each lysate to determine the protein concentration.
(§2) For validation studies of antibodies, lysates and antibodies were used at a number of concentrations (Lysates: 2, 1, 0.2 mg/ml; Antibodies: 1 in 50, 1 in 200 dilution). Once an appropriate lysate concentration and antibody concentration was determined, samples were screened in the JESS technology (Protein Simple, San Jose, CA—https://www.proteinsimple.com/jess.html).
(§3) Target protein antibodies (n-myc and c-myc) were detected in the chemi-luminescence channel and loading controls (tubulin and GAPDH) were detected using a Near Infra Red (NIR) labeled secondary antibody.
(§4) For SK-N-EB2 adherent cells, 5E5 cells in 1.9 mls media were plated into 6 well dishes and incubated for 24 hrs. […] Cells were scrapped off the plate, centrifuged, washed with PBS, centrifuged, then a RIPA buffer cocktail added to the cells (100 ul), centrifuged and stored at −80 for later analysis. For L363 suspension cells, 1E6 cells were plated into […] (950 ul media) and incubated for 24 hrs. […] Cells were aspirated into tubes, centrifuged, washed with PBS, centrifuged, then a RIPA buffer cocktail added to the cells (100 ul), centrifuged and stored at −80 for later analysis.
(§5) For Western blot, a BCA (total protein) assay was run on all samples, these were then run in batches of 5 compounds plus control (DMSO) on each Western blot run—n-myc and c-myc were run in separate experiments in the chemiluminescence channel. Both tubulin and GAPDH were run as loading controls in all lanes in the near infra red channel.

MycN protein (n-myc) = target: T2, MycN protein (n-myc) (Homo sapiens, UniProt P04198); assay: Degradation of MycN protein, 24 h treatment, JESS Western, SK-N-BE(2) cells (Example 161); conditions: SKNBE2 cells
T2 construct: either 2×10^6 of L-363 (human leukemia cell line) or SKNBE2 (neuroblastoma cell line) cells; endogenous in cells; host or cells: SKNBE2 / SK-N-BE(2) neuroblastoma cells
T2 sequence (P04198 1-464): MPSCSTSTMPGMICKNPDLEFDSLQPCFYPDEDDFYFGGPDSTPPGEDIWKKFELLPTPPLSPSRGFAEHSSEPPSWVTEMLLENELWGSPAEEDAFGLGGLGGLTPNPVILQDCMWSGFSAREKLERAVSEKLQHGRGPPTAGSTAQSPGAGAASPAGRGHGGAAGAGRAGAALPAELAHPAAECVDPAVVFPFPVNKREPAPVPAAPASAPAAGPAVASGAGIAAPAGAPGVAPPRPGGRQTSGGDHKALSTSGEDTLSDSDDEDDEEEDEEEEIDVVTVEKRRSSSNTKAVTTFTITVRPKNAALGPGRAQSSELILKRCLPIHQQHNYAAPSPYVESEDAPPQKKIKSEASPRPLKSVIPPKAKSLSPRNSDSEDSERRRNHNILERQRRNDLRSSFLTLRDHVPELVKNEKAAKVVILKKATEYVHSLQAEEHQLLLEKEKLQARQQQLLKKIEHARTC
Experimental: as §1, §2, §3, §4, §5

MycN protein = target: T3, MycN protein (Homo sapiens, UniProt P04198); assay: Degradation of MycN protein, Western blot, SKNBE2 cells (Example 160)
T3 construct: either 2×10^6 of L-363 (human leukemia cell line) or SKNBE2 (neuroblastoma cell line) cells; endogenous in cells; host or cells: SKNBE2 / SK-N-BE(2) neuroblastoma cells
T3 sequence (P04198 1-464): T2 sequence (P04198 1-464)
Experimental: In a T150 flask was plated either 2×10^6 of L-363 (human leukemia cell line) or SKNBE2 (neuroblastoma cell line) cells in a total of 30 mL containing Roswell Park Memorial Institute (RPMI) 1640 Medium (Thermo Fisher, Cat. #11875-085), 10% Fetal Bovine Serum (FBS, Thermo Fisher: Cat. #10437-028), 1% Penicillin/streptomycin (Thermo Fisher: Cat. #10378016), and 1% Amophotericin B (Thermo Fisher, Cat. #15290026). The cells were split every 72 hours by reseeding the L-363 or SKNBE2 cells, and the passage number was noted. It is noteworthy that cell cultures that were above 40 passages were not used, and most experiments were done with cells of less than 30 passages.
In a 6-well cell culture plate, a total of 3 mL of either 1×10^6 cells/mL of L-363 or SKNBE2 cells were seeded, resulting in a total of 3×10^6 cells per well. To each well containing 3 mL of either L-363 or SKNBE2 cell line was added 6 uL of MycN modulating compound (1 mM) and the resulting plate was shaken from left to right, and not swirled. After 6 hours, the cells were placed in a 15 mL falcon tube and spun at 500 Gs at 4° C. in a swinging bucket centrifuge. The medium was then carefully removed without disturbing the pellet. The pellet was then washed with 3 mLs of chilled phosphate buffered saline (PBS) and subjected to the spin cycle. PBS was then removed and the pellet was lysed in 200 uL of radioimmunoprecipitation (RIPA) lysis buffer (Thermo Fisher: Cat. #899000) that is supplemented with protease and phosphatase inhibitors (Thermo Fisher: Cat. #A32959). The cell lysate was then subjected to spinning in a centrifuge for 10 minutes at 13000 G at 4° C. The supernatant was then carefully transferred to a fresh eppendorf tube without disturbing the pellet (˜180 uL). The protein concentration of the cell lysate was then determined by using a bicinchoninic acid (BCA assay) according to manufacturer's protocol (Thermo Fisher: Cat. #23227).
Cell lysate, approximately 25 ug-30 ug, was loaded per well in a 4-20% polyacrylamide gel (Biorad. Cat. #5671094). After running the dye front off of the gel, the gel was transferred to a nitrocellulose membrane (Biorad: Cat. #1704159) using the transblot turbo system (Biorad: Cat. #1704150) according to manufacturer's protocol. After transferring for 30 minutes, the membrane was blocked with 5% BSA for 1 hour at room temperature. The BSA was then washed off and the primary antibody of choice (1:500) was added, and the membrane was incubated with the primary antibody at 4° C. for overnight. The next morning, the primary antibody was removed and the membrane was washed with 1×-TBST for 10 minutes and repeated three more times. Following the last wash, a secondary antibody (Molecular Devices. Cat. #R8209 or R8208) was added at 1:5000 dilution and incubated for 1 hour at room temperature. Following the incubation with the secondary antibody, the membrane was washed with 1×-TBST for 10 minutes and repeated three more times. Following the last wash, the membrane was washed with de-ionized water twice and dried for at least two hours. Once the membrane is completely dry, the Molecular Devices Spectra Max western system was used to observe the bands. The western image was saved and the band density was measured with ImageJ software.

T1 sequence (P01106 whole entry): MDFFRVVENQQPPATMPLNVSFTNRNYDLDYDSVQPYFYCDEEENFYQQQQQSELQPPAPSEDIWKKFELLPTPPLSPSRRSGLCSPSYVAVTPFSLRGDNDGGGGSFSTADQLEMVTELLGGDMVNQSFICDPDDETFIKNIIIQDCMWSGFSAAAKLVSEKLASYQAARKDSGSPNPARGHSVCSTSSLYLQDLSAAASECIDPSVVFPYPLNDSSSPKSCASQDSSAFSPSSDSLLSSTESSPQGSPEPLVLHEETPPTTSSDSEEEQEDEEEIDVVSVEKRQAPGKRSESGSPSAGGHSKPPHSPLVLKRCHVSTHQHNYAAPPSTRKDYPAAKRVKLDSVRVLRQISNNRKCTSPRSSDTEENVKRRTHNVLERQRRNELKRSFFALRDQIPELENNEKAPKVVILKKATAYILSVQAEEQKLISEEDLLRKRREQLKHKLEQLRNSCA

## CN(c1nccc(Nc2cc(C3CC3)[nH]n2)n1)C1CC2(C1)CN(CC1CCOCC1)C2 [Compound 20, N4-(5-Cyclopropyl-1H-pyrazol-3-yl)-N2-methyl-N2-{2-[(oxan-4-yl)methyl]-2-azaspiro[3.3]heptan-6-yl}pyrimidine-2,4-diamine]
MycC protein (c-myc)
  inhibition at 6 µM: 80 to 100%
MycN protein (n-myc)
  inhibition at 3 µM: 20 to 49%
  inhibition at 6 µM: 50 to 79%

## CN(c1nccc(Nc2cc(C3CC3)[nH]n2)n1)[C@H]1CC[C@H](NC(=O)Cc2cccc(C#N)c2)CC1 [Compound 114, 2-(3-cyanophenyl)-N-((1R,4R)-4-((4-((5-cyclopropyl-1H-pyrazol-3-yl)amino)pyrimidin-2-yl)(methyl)amino)cyclohexyl)acetamide]
MycN protein; SKNBE2, 6 h
  inhibition at 2 µM: 50 to 79%

## CN(c1nccc(Nc2cc(C3CCCC3)[nH]n2)n1)[C@H]1CC[C@H](NC(=O)CC2Cc3ccccc3C2)CC1 [Compound 106, N-((1R,4R)-4-((4-((5-cyclopentyl-1H-pyrazol-3-yl)amino)pyrimidin-2-yl)(methyl)amino)cyclohexyl)-2-(2,3-dihydro-1H-inden-2-yl)acetamide]
MycN protein; SKNBE2, 6 h
  inhibition at 2 µM: 20 to 49%

## CN(c1nccc(Nc2cc(C3CCCC3)[nH]n2)n1)[C@H]1CC[C@H](NC(=O)C2Cc3ccccc3C2)CC1 [Compound 105, N-((1R,4R)-4-((4-((5-cyclopentyl-1H-pyrazol-3-yl)amino)pyrimidin-2-yl)(methyl)amino)cyclohexyl)-2,3-dihydro-1H-indene-2-carboxamide]
MycN protein; SKNBE2, 6 h
  inhibition at 2 µM: 50 to 79%

## CN1CCN(C(=O)CN2CC3(CC(N(C)c4nccc(Nc5cc(C6CC6)[nH]n5)n4)C3)C2)CC1 [Compound 30, 2-(6-((4-((5-Cyclopropyl-1H-pyrazol-3-yl)amino)pyrimidin-2-yl)(methyl)amino)-2-azaspiro[3.3]heptan-2-yl)-1-(4-methylpiperazin-1-yl)ethan-1-one]
MycC protein (c-myc); 0.5 μM
  inhibition at 0.5 µM: 20 to 49%
MycC protein (c-myc); 1 μM
  inhibition at 1 µM: 20 to 49%
MycC protein (c-myc); 3 μM
  inhibition at 3 µM: < 20%
MycC protein (c-myc)
  inhibition at 6 µM: < 20%

## CN(c1nccc(Nc2cc(C3CC3)[nH]n2)n1)C1CC2(C1)CN(CC(=O)Nc1ccc(S(C)(=O)=O)cc1)C2 [Compound 24, 2-(6-((4-((5-Cyclopropyl-1H-pyrazol-3-yl)amino)pyrimidin-2-yl)(methyl)amino)-2-azaspiro[3.3]heptan-2-yl)-N-(4-(methylsulfonyl)phenyl)acetamide]
MycC protein (c-myc)
  inhibition at 6 µM: 80 to 100%

## CN(c1nccc(Nc2cc(C3CC3)[nH]n2)n1)[C@H]1CC[C@H](NC(=O)Cc2cccc(C(F)(F)F)c2)CC1 [Compound 104, N-((1R,4R)-4-((4-((5-cyclopropyl-1H-pyrazol-3-yl)amino)pyrimidin-2-yl)(methyl)amino)cyclohexyl)-2-(3-(trifluoromethyl)phenyl)acetamide]
MycN protein; SKNBE2, 6 h
  inhibition at 2 µM: 20 to 49%

## COCCOCCN1CC2(CC(N(C)c3nccc(Nc4cc(C5CC5)[nH]n4)n3)C2)C1 [Compound 22, N4-(5-Cyclopropyl-1H-pyrazol-3-yl)-N2-(2-(2-(2-methoxyethoxy)ethyl)-2-azaspiro[3.3]heptan-6-yl)-N2-methylpyrimidine-2,4-diamine]
MycN protein (n-myc); 0.5 μM
  inhibition at 0.5 µM: < 20%
MycN protein (n-myc)
  inhibition at 1 µM: 20 to 49%
  inhibition at 3 µM: 20 to 49%
  inhibition at 6 µM: 20 to 49%

## CN(c1nccc(Nc2cc(C3CC3)[nH]n2)n1)C1CC2(C1)CN(S(=O)(=O)c1cn3c(n1)CCCC3)C2 [Compound 36, N4-(5-Cyclopropyl-1H-pyrazol-3-yl)-N2-methyl-N2-(2-((5,6,7,8-tetrahydroimidazo[1,2-a]pyridin-2-yl)sulfonyl)-2-azaspiro[3.3]heptan-6-yl)pyrimidine-2,4-diamine]
MycN protein (n-myc)
  inhibition at 1 µM: < 20%
  inhibition at 3 µM: < 20%
  inhibition at 6 µM: < 20%

## CN(c1nccc(Nc2cc(C3CC3)[nH]n2)n1)[C@H]1CC[C@H](NC(=O)N2Cc3ccccc3C2)CC1 [Compound 11, N-((1R,4R)-4-((4-((5-cyclopropyl-1H-pyrazol-3-yl)amino)pyrimidin-2-yl)(methyl)amino)cyclohexyl)isoindoline-2-carboxamide]
MycN protein; SKNBE2, 6 h
  inhibition at 2 µM: 50 to 79%

## CN(c1nccc(Nc2cc(C3CC3)[nH]n2)n1)[C@H]1CC[C@H](NC(=O)c2cccc(C(F)(F)F)c2)CC1 [Compound 107, N-((1R,4R)-4-((4-((5-cyclopropyl-1H-pyrazol-3-yl)amino)pyrimidin-2-yl)(methyl)amino)cyclohexyl)-3-(trifluoromethyl)benzamide]
MycN protein; SKNBE2, 6 h
  inhibition at 2 µM: 50 to 79%

## CN(c1nccc(Nc2cc(C3CC3)[nH]n2)n1)[C@H]1CC[C@H](NC(=O)C2Cc3ccccc3C2)CC1 [Compound 101, N-((1R,4R)-4-((4-((5-cyclopropyl-1H-pyrazol-3-yl)amino)pyrimidin-2-yl)(methyl)amino)cyclohexyl)-2,3-dihydro-1H-indene-2-carboxamide]
MycN protein; SKNBE2, 6 h
  inhibition at 2 µM: 50 to 79%

## CN(c1nccc(Nc2cc(C3CCCC3)[nH]n2)n1)[C@H]1CC[C@H](NC(=O)Cc2cccc(C(F)(F)F)c2)CC1 [Compound 103, N-((1R,4R)-4-((4-((5-cyclopentyl-1H-pyrazol-3-yl)amino)pyrimidin-2-yl)(methyl)amino)cyclohexyl)-2-(3-(trifluoromethyl)phenyl)acetamide]
MycN protein; SKNBE2, 6 h
  inhibition at 2 µM: 50 to 79%

## CN(c1nccc(Nc2cc(C3CCCC3)[nH]n2)n1)C1CCC(CC(=O)NC2Cc3ccc(C#N)cc3C2)CC1 (stereo not drawn) [Compound 102, N-(5-cyano-2,3-dihydro-1H-inden-2-yl)-2-(4-((4-((5-cyclopentyl-1H-pyrazol-3-yl)amino)pyrimidin-2-yl)(methyl)amino)cyclohexyl)acetamide]
MycN protein; 6 h
  inhibition at 2 µM: 80 to 100%

Reference: patent US20230322722A1, “MODULATORS OF MYC FAMILY PROTO-ONCOGENE PROTEIN” (Nalo Therapeutics, priority 2020, published 2023)
